Reference: patent US11945822B2, “Pyrazolo-triazine and/or pyrazolo-pxrimidine derivatives as selective inhibitor of cyclin dependent kinase” (QURIENT CO., LTD., priority 2018, dated 2024)

Experiments:
CDK5/p25 = target: T1, CDK5/p25 (Homo sapiens, UniProt Q00535); test: Enzymatic assay for CDK5 (FRET based LANCE Ultra kinase assay); assay type: biochemical; details: read-out: CDK5 enzymatic activity (IC50 range)
T1 construct: purchased Invitrogen PR8543B
How it was run: (§1)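 LANCE Ultra TR-FRET: ULight-MBP peptide (68 nM) with ATP at Km, […], 60 min at 23° C. EDTA plus Eu-anti-phospho-MBP added, another 60 min, then 665/615 nm emission read. Compounds tested as 8-dose 4-fold DMSO dilutions.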

MM.1S = test: Cellular MM.1S viability assay (CellTiter-Glo, 72 hours); assay type: cell-based; details: Homo sapiens, MM1.S
How it was run: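 Cells seeded at 1×10^4/well (MM.1S), 5×10^3 (OVCAR-3) or 1×10^3 (A2780), grown in RPMI-1640 with 10% FBS. After 24 h, compound added at 0.0015–10 uM, final DMSO below 0.1%, for 72 h at 37° C. Viability read by CellTiter-Glo luminescence in duplicate, with curve fitting.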

CDK7/Cyclin H/MNAT1 = target: T2, CDK7/Cyclin H/MNAT1 (Homo sapiens, UniProt P50613); test: Enzymatic assay for CDK7 (FRET based LANCE Ultra kinase assay); assay type: biochemical; details: for IC50: read-out: CDK7 enzymatic activity (IC50 range)
T2 construct: purchased Invitrogen PR6749B
T2 sequence (P50613 whole entry): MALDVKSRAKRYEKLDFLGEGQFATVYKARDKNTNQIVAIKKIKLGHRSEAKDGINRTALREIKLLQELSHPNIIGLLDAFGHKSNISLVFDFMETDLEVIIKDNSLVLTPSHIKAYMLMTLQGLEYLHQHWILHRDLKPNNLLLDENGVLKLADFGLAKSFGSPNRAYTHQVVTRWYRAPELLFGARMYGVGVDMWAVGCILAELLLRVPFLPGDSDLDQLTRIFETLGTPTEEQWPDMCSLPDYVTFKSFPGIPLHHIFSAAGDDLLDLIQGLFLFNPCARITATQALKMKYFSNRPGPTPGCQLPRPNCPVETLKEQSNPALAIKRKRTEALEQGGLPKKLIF
T2 sequence (P51946 whole entry partner): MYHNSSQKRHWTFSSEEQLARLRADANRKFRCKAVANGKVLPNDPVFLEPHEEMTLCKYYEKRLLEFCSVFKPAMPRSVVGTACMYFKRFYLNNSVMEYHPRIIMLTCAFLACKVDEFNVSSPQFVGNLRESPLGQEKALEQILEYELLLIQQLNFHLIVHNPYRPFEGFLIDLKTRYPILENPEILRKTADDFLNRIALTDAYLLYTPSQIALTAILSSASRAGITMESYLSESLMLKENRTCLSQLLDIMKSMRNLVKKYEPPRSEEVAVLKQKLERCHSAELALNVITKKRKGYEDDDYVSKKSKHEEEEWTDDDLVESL
T2 sequence (P51948 whole entry partner): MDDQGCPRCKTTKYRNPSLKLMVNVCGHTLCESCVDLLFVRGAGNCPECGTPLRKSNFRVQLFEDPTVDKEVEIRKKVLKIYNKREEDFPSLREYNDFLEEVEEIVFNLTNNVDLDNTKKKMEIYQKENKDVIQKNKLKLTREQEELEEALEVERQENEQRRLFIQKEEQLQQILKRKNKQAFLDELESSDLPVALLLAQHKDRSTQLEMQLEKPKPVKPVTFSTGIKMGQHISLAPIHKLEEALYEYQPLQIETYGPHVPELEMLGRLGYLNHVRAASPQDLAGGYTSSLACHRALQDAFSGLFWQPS
How it was run: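 LANCE Ultra TR-FRET kinase assay using a ULight-labeled peptide substrate and a Eu-labeled anti-phospho antibody, with ATP at its Km. Purified CDK/cyclin complex was added to compound after brief centrifugation.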

MV4-11 = test: Cellular MV4-11 viability assay (CellTiter-Glo, 72 hours); assay type: cell-based; details: Homo sapiens
How it was run: (§2)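 Steps: seed cells at per-line density; add compound, DMSO vehicle kept under 0.1% final; incubate 72 h, 37 °C, 5% CO2; lyse with CellTiter-Glo and read luminescence; run in duplicate.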

H460 = test: Cellular H460 viability assay (CellTiter-Glo, 72 hours); assay type: cell-based; details: Homo sapiens, NCI-H460
How it was run: as §2

RPMI-8226 = test: Cellular RPMI-8226 viability assay (CellTiter-Glo, 72 hours); assay type: cell-based; details: Homo sapiens
How it was run: as §2

HCT116 = test: Cellular HCT116 viability assay (CellTiter-Glo, 72 hours); assay type: cell-based; details: Homo sapiens, HCT-116
How it was run: as §2

CDK1/Cyclin B = target: T3, CDK1/Cyclin B (Homo sapiens, UniProt P06493); test: Enzymatic assay for CDK1 (FRET based LANCE Ultra kinase assay); assay type: biochemical; details: read-out: CDK1 enzymatic activity (IC50 range)
T3 construct: purchased Invitrogen PR4768C
T3 sequence (P06493 whole entry): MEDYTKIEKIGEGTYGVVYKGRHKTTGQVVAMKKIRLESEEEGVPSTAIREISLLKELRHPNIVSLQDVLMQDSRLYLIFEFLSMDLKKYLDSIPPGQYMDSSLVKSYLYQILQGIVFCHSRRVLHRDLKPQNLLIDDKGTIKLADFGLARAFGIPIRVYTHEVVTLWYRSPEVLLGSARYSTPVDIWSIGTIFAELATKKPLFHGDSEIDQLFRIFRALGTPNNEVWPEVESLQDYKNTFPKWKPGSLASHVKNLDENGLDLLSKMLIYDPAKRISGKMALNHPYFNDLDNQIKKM
T3 sequence (P14635 whole entry partner): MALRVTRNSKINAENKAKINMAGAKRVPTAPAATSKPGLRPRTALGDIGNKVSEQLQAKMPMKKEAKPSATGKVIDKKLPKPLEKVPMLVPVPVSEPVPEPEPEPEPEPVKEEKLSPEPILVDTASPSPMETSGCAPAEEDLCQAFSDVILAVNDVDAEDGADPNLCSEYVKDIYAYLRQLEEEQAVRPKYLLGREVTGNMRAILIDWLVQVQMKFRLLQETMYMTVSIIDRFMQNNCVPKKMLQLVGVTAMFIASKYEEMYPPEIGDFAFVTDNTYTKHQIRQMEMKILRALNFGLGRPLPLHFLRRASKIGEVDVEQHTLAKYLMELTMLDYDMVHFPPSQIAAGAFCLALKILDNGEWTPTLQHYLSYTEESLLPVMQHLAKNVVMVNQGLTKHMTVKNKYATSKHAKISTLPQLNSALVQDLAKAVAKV
How it was run: as §1

CDK2/Cyclin A = target: T4, CDK2/Cyclin A (Homo sapiens, UniProt P24941); test: Enzymatic assay for CDK2 (FRET based LANCE Ultra kinase assay); assay type: biochemical; details: read-out: CDK2 enzymatic activity (IC50 range)
T4 construct: purchased Invitrogen PV6290
How it was run: as §1

MOLT-4 = test: Cellular MOLT-4 viability assay (CellTiter-Glo, 72 hours); assay type: cell-based; details: Homo sapiens, MOLT4 viability assay
How it was run: as §2

T1 sequence (Q00535 whole entry): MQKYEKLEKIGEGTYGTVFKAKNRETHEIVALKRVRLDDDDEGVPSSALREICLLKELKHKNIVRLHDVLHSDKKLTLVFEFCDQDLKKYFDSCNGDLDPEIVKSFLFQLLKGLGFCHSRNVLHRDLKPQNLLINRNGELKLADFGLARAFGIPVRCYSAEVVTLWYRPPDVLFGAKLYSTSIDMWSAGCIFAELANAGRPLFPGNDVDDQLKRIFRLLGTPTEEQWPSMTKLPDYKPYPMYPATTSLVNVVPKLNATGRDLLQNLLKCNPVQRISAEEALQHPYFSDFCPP
T1 sequence (Q15078 99-307 partner limits assumed): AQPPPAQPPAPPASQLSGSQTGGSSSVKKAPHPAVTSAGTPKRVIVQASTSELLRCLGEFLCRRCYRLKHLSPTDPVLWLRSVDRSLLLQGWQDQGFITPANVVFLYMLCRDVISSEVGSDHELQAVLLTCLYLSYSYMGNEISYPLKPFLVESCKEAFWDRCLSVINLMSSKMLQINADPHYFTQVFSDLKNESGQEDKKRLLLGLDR

| SMILES | IC50 (CDK5/p25) [nM] | IC50 (MM.1S) [nM] | CDK1/CDK7: Selectivity of CDK7 inhibition over CDK1 inhibition (CDK7/Cyclin H/MNAT1) | CDK2/CDK7: Selectivity of CDK7 inhibition over CDK2 inhibition (CDK7/Cyclin H/MNAT1) | CDK5/CDK7: Selectivity of CDK7 inhibition over CDK5 inhibition (CDK7/Cyclin H/MNAT1) | IC50 (CDK7/Cyclin H/MNAT1) [nM] | IC50 (MV4-11) [nM] | IC50 (H460) [nM] | IC50 (RPMI-8226) [nM] | IC50 (HCT116) [nM] | IC50 (CDK1/Cyclin B) [nM] | IC50 (CDK2/Cyclin A) [nM] | IC50 (MOLT-4) [nM] |
| --- | --- | --- | --- | --- | --- | --- | --- | --- | --- | --- | --- | --- | --- |
| CNC(=O)c1ccc2nn(-c3ccccc3CNc3nc(N4CCC(N)CC4)nc4c(C(C)C)cnn34)cc2c1 [Compound 14] | 100 to 1000 | ≤ 1000 | A (A=greater than 200 fold) | B (B=less than 200 fold, but greater than 20 fold) | B (B=less than 200 fold, but greater than 20 fold) | < 100 | < 1000 | < 1000 | < 1000 | < 1000 | 100 to 1000 | 100 to 1000 |  |
| CC(C)c1cnn2c(NCc3ccccc3-c3cc4cccc(NC(=O)CCCN(C)C)c4[nH]3)nc(N3CCC(N)CC3)nc12 [Compound 143] | < 100 | ≤ 1000 | B (B=less than 200 fold, but greater than 20 fold) | B (B=less than 200 fold, but greater than 20 fold) | C (C=less than 20 fold) | < 100 | < 1000 | 1000 to 10000 | 1000 to 10000 |  | 100 to 1000 | 100 to 1000 |  |
| CC(C)c1cnn2c(NCc3ccccc3OC3CCN(C)CC3)nc(N3CCC(N)CC3)nc12 [Compound 66] | 100 to 1000 | ≤ 1000 | A (A=greater than 200 fold) | A (A=greater than 200 fold) | A (A=greater than 200 fold) | < 100 | < 1000 | < 1000 | 1000 to 10000 | < 1000 | > 1000 | > 1000 | 1000 to 10000 |
| CC(C)c1cnn2c(NCc3ccccc3-c3cc4ccccc4[nH]3)nc(N3CCNC(=O)C3)nc12 [Compound 175] | > 1000 | 1000 to 10000 | A (A=greater than 200 fold) | B (B=less than 200 fold, but greater than 20 fold) | B (B=less than 200 fold, but greater than 20 fold) | < 100 | 1000 to 10000 | 1000 to 10000 | 1000 to 10000 | 1000 to 10000 | > 1000 | > 1000 |  |
| CC(C)c1cnn2c(NCc3ccccc3-n3cc4c(n3)CCNC4=O)nc(N3CCC(N)CC3)nc12 [Compound 134] | 100 to 1000 | 1000 to 10000 | A (A=greater than 200 fold) | B (B=less than 200 fold, but greater than 20 fold) | B (B=less than 200 fold, but greater than 20 fold) | < 100 | < 1000 | 1000 to 10000 | < 1000 | < 1000 | > 1000 | 100 to 1000 |  |
| CC(C)c1cnn2c(NCc3ccccc3-c3nccc4ccccc34)nc(N3CCC(N)CC3)nc12 [Compound 79] | > 1000 | 1000 to 10000 | A (A=greater than 200 fold) | A (A=greater than 200 fold) | A (A=greater than 200 fold) | < 100 | 1000 to 10000 | 1000 to 10000 | 1000 to 10000 |  | > 1000 | > 1000 | > 10000 |
| CC(C)c1cnn2c(NCc3ccccc3-n3cccn3)nc(N3CCC(N4CCNCC4)CC3)nc12 [Compound 174] | 100 to 1000 | ≤ 1000 | A (A=greater than 200 fold) | A (A=greater than 200 fold) | B (B=less than 200 fold, but greater than 20 fold) | < 100 | < 1000 | < 1000 |  |  | > 1000 | > 1000 | > 10000 |
| CC(C)c1cnn2c(NCc3c(Cl)cccc3-n3cccn3)nc(N3CCC(N)CC3)nc12 [Compound 38] | 100 to 1000 | ≤ 1000 | A (A=greater than 200 fold) | A (A=greater than 200 fold) | B (B=less than 200 fold, but greater than 20 fold) | < 100 | < 1000 | < 1000 | < 1000 |  | > 1000 | > 1000 | 1000 to 10000 |
| CC(C)c1cnn2c(NCc3c(F)cccc3-n3cccn3)nc(N3CCC(N)CC3)nc12 [Compound 42] | 100 to 1000 | ≤ 1000 | A (A=greater than 200 fold) | A (A=greater than 200 fold) | B (B=less than 200 fold, but greater than 20 fold) | < 100 | < 1000 | < 1000 | < 1000 |  | > 1000 | 100 to 1000 | 1000 to 10000 |
| COc1cccc(-n2cccn2)c1CNc1nc(N2CCC(N)CC2)nc2c(C(C)C)cnn12 [Compound 39] | > 1000 | 1000 to 10000 | A (A=greater than 200 fold) | A (A=greater than 200 fold) | A (A=greater than 200 fold) | < 100 | 1000 to 10000 | 1000 to 10000 | 1000 to 10000 |  | > 1000 | > 1000 | > 10000 |
| CC(C)c1cnn2c(N[C@@H](C)c3ccccc3-n3cccn3)nc(N3CCC(N)CC3)nc12 [Compound 21] | > 1000 | ≤ 1000 | A (A=greater than 200 fold) | A (A=greater than 200 fold) | A (A=greater than 200 fold) | < 100 | < 1000 | < 1000 | 1000 to 10000 | < 1000 | > 1000 | > 1000 |  |
| CC(C)c1cnn2c(NCc3c(-n4cccn4)cccc3C(F)(F)F)nc(N3CCC(N)CC3)nc12 [Compound 46] | > 1000 | 1000 to 10000 | A (A=greater than 200 fold) | A (A=greater than 200 fold) | A (A=greater than 200 fold) | < 100 | 1000 to 10000 | 1000 to 10000 | 1000 to 10000 |  | > 1000 | > 1000 | 1000 to 10000 |
| CC(C)c1cnn2c(NCc3ccccc3-n3cc4cc(Oc5ccccc5)ccc4n3)nc(N3CCC(N)CC3)nc12 [Compound 105] | > 1000 | ≤ 1000 | A (A=greater than 200 fold) | B (B=less than 200 fold, but greater than 20 fold) | B (B=less than 200 fold, but greater than 20 fold) | < 100 |  | 1000 to 10000 | 1000 to 10000 |  | > 1000 | > 1000 | 1000 to 10000 |
